pEC50, pIC50, pKd: −log10 of the molar value. Activity calls are given as the source filed them. No cut-off for these calls is given here.
Tests used:
[1] = target: Replicase polyprotein 1ab (Severe acute respiratory syndrome coronavirus 2) (UniProt P0DTD1); test: Inhibition of recombinant SARS-CoV-2 main protease expressed in Escherichia coli BL21 DE3 expression cells using MCA-AVLQSGFR-Lys(Dnp)-Lys-NH2 as substrate at 10 uM incubated for 10 to 15 mins followed by substrate addition by FRET assay relative to control; settings: time 10-15 min
SARS-CoV-2 [2] = test: Antiviral activity against wild type SARS-CoV-2 infected in human Calu-3 cells assessed as reduction in nucleocapsid protein mRNA level at 10 uM preincubated with cells for 2 hrs followed by viral infection for 1 hr and measured after 24 hrs by RT-qPCR analysis; assay type: functional, organism-based; settings: Severe acute respiratory syndrome coronavirus 2, time 27.0 hrs
SARS-CoV-2 [3] = test: Antiviral activity against wild type SARS-CoV-2 infected in human Calu-3 assessed as reduction in viral spike protein level at 10 uM preincubated with cells for 2 hrs followed by viral infection for 1 hr and measured after 24 hrs by RT-qPCR analysis; assay type: functional, organism-based; settings: Severe acute respiratory syndrome coronavirus 2, time 27.0 hrs
SARS-CoV-2 [4] = test: Antiviral activity against wild type SARS-CoV-2 infected in human Calu-3 assessed as reduction in nucleocapsid protein level at 10 uM preincubated with cells for 2 hrs followed by viral infection for 1 hr and measured after 24 hrs by Western blot analysis; assay type: functional, organism-based; settings: Severe acute respiratory syndrome coronavirus 2, time 27.0 hrs
SARS-CoV-2 [5] = test: Antiviral activity against wild type SARS-CoV-2 infected in human Calu-3 cells assessed as reduction in viral spike protein level at 10 uM preincubated with cells for 2 hrs followed by viral infection for 1 hr and measured after 24 hrs by Western blot analysis; assay type: functional, organism-based; settings: Severe acute respiratory syndrome coronavirus 2, time 27.0 hrs
[6] = target: T1, Replicase polyprotein 1ab (Severe acute respiratory syndrome coronavirus 2, UniProt P0DTD1); test: Inhibition of recombinant SARS-CoV-2 main protease expressed in Escherichia coli BL21 DE3 expression cells using MCA-AVLQSGFR-Lys(Dnp)-Lys-NH2 as substrate incubated for 10 to 15 mins followed by substrate addition by FRET assay
SARS-CoV-2 [7] = test: Antiviral activity against wild type SARS-CoV-2 infected in human HeLa cells expressing ACE2 assessed as reduction in viral spike protein level preincubated with cells for 2 hrs followed by viral infection for 1 hr and measured after 24 hrs by RT-qPCR analysis; assay type: functional, organism-based; settings: Severe acute respiratory syndrome coronavirus 2, HeLa
[8] = target: T1, Replicase polyprotein 1ab; test: Non-covalent inhibition of SARS-CoV-2 main protease incubated for 10 mins followed by substrate addition by FRET assay
SARS-CoV-2 [9] = test: Antiviral activity against SARS-CoV-2 infected in African green monkey Vero E6 cells assessed as reduction in viral plaque number pre-infected with virus followed by cell addition for 1 hr and measured after 24 hrs by plaque assay; assay type: functional, organism-based; settings: Severe acute respiratory syndrome coronavirus 2
SARS-CoV-2 [10] = test: Antiviral activity against wild type SARS-CoV-2 infected in human HeLa cells expressing ACE2 assessed as reduction in viral spike protein level at 10 uM preincubated with cells for 2 hrs followed by viral infection for 1 hr and measured after 24 hrs by Western blot analysis; assay type: functional, organism-based; settings: Severe acute respiratory syndrome coronavirus 2, time 27.0 hrs
[11] = n-Octanol/water partition coefficient, logP of the compound incubated for 12 hrs by HPLC analysis; assay type: physicochemical
SARS-CoV-2 [12] = test: Antiviral activity against SARS-CoV-2 infected in African green monkey Vero E6 cells assessed as reduction in viral plaque size pre-infected with virus followed by cell addition for 1 hr and measured after 24 hrs by plaque assay; assay type: functional, organism-based; settings: Severe acute respiratory syndrome coronavirus 2
[13] = target: T1, Replicase polyprotein 1ab; test: Non-covalent inhibition of SARS-CoV-2 main protease incubated for 50 mins followed by substrate addition by FRET assay
[14] = target: T1, Replicase polyprotein 1ab; test: Binding affinity to recombinant SARS-CoV-2 main protease expressed in Escherichia coli BL21 DE3 expression cells assessed as dissociation constant measured for 60 secs by SPR analysis
[15] = Solubility of the compound in water incubated for 24 hrs by HPLC analysis; assay type: physicochemical
SARS-CoV-2 [16] = test: Antiviral activity against wild type SARS-CoV-2 infected in human HeLa cells expressing ACE2 assessed as reduction in nucleocapsid protein level at 10 uM preincubated with cells for 2 hrs followed by viral infection for 1 hr and measured after 24 hrs by Western blot analysis; assay type: functional, organism-based; settings: Severe acute respiratory syndrome coronavirus 2, time 27.0 hrs
SARS-CoV-2 [17] = test: Antiviral activity against wild type SARS-CoV-2 infected in human HeLa cells expressing ACE2 assessed as reduction in nucleocapsid protein mRNA level preincubated with cells for 2 hrs followed by viral infection for 1 hr and measured after 24 hrs by RT-qPCR analysis; assay type: functional, organism-based; settings: Severe acute respiratory syndrome coronavirus 2, HeLa
[18] = Stability of compound in stimulated gastric fluid assessed as parent compound remaining measured upto 24 hrs by HPLC analysis; assay type: ADME; settings: simulated gastric fluid, read-out: Stability
[19] = Stability of compound in stimulated intestinal fluid assessed as parent compound remaining measured upto 24 hrs by HPLC analysis; assay type: ADME; settings: simulated intestinal fluid, read-out: Stability
[20] = target: T1, Replicase polyprotein 1ab; test: Non-covalent inhibition of SARS-CoV-2 main protease incubated for 30 mins followed by substrate addition by FRET assay
[21] = Metabolic stability in mouse liver microsomes assessed as half life at 10 mg/ml preincubated for 5 mins followed by NADPH addition and measured upto 120 mins by HPLC analysis; assay type: ADME, Microsome; settings: time < 125 min
[22] = Metabolic stability in mouse liver microsomes assessed as intrinsic clearance at 10 mg/ml preincubated for 5 mins followed by NADPH addition and measured upto 120 mins by HPLC analysis; assay type: ADME, Microsome; settings: time < 125 min, read-out: CLH
[23] = Metabolic stability in mouse liver microsomes assessed as parent compound remaining at 10 mg/ml measured after 120 mins by HPLC analysis; assay type: ADME, Microsome; settings: read-out: Stability

Structure (SMILES): O=C(O)CCCCCCCN1C(=O)/C(=C2/C(=O)Nc3ccccc32)c2cc(Br)ccc21
- inhibition [1]: 97.8%
- Activity (SARS-CoV-2 [2]): Active
- Activity (SARS-CoV-2 [3]): Active
- Activity (SARS-CoV-2 [4]): Active
- Activity (SARS-CoV-2 [5]): Active
- pIC50 [6]: 5.92

Structure (SMILES): O=C(O)CCCCCCCN1C(=O)/C(=C2/C(=O)Nc3ccccc32)c2ccccc21
- inhibition [1]: 73.8%

Structure (SMILES): CC(C)(C)[C@H](NC(=O)C(F)(F)F)C(=O)N1C[C@H]2[C@@H]([C@H]1C(=O)N[C@H](C#N)C[C@@H]1CCNC1=O)C2(C)C
- pEC50 (SARS-CoV-2 [7]): 4.77

Structure (SMILES): O=C(O)CCCCCCCCCCCN1C(=O)/C(=C2/C(=O)Nc3ccccc32)c2ccccc21
- inhibition [1]: 72.9%

Structure (SMILES): COc1ccc2c(c1)/C(=C1\C(=O)Nc3ccccc31)C(=O)N2CCCCCCCC(=O)O
- inhibition [1]: 89.1%
- pIC50 [6]: 5.79

Structure (SMILES): O=C1Nc2ccccc2/C1=C1\C(=O)N(CCN2CCOCC2)c2ccccc21
- inhibition [1]: 83.9%

Structure (SMILES): O=C1Nc2ccccc2/C1=C1\C(=O)Nc2ccccc21 [ISOINDIGO]
- inhibition [1]: 85.3%
- pIC50 [6]: 5.92

Structure (SMILES): O=C(O)CCCCCCCCCN1C(=O)/C(=C2/C(=O)Nc3ccccc32)c2cc(Br)ccc21
- inhibition [1]: 76.8%

Structure (SMILES): CN1C(=O)/C(=C2/C(=O)N(C)c3ccccc32)c2ccccc21
- inhibition [1]: 25.7%

Structure (SMILES): CN1C(=O)C2(CC=CCC23C(=O)Nc2ccccc23)c2ccccc21 (stereo not given)
- inhibition [1]: 11.9%

Structure (SMILES): CN1C(=O)/C(=C2/C(=O)Nc3ccccc32)c2cc(Br)ccc21
- inhibition [1]: 32.4%

Structure (SMILES): O=C1Nc2ccccc2/C1=C1\C(=O)N(CCBr)c2ccccc21
- inhibition [1]: 97.4%

Structure (SMILES): CCOC(=O)CCCCCCCN1C(=O)/C(=C2/C(=O)Nc3ccccc32)c2cc(Br)ccc21
- inhibition [1]: 25.2%

Structure (SMILES): CN1C(=O)/C(=C2/C(=O)N(CCN)c3ccccc32)c2cc(Br)ccc21.Cl
- pIC50 [8]: 5.71
- Activity (SARS-CoV-2 [9]): Active
- Activity (SARS-CoV-2 [10]): Active
- logP at 12 h [11]: 0.59
- Activity (SARS-CoV-2 [12]): Active
- inhibition [1]: 85.8%
- pEC50 (SARS-CoV-2 [7]): 5.75
- pIC50 [13]: 5.83
- pKd [14]: 5.90
- solubility at 24 h [15]: 3810 µg/mL
- Activity (SARS-CoV-2 [16]): Active
- pEC50 (SARS-CoV-2 [17]): 5.69
- remaining at 24 h [18]: 95%
- remaining at 24 h [19]: 78%
- pIC50 [20]: 5.82
- pIC50 [6]: 5.96

Structure (SMILES): CN1C(=O)/C(=C2/C(=O)N(CCN3CCCC3)c3ccccc32)c2ccccc21.Cl
- Activity (SARS-CoV-2 [10]): inactive
- logP at 12 h [11]: 0.7
- inhibition [1]: 86.5%
- pKd [14]: 6.15
- solubility at 24 h [15]: 17300 µg/mL
- Activity (SARS-CoV-2 [16]): inactive
- remaining at 24 h [18]: 95.2%
- remaining at 24 h [19]: 85.3%
- pIC50 [6]: 5.94

Structure (SMILES): COc1ccc2c(c1)C1(CC=CCC13C(=O)Nc1ccccc13)C(=O)N2C (stereo not given)
- inhibition [1]: 4.1%

Structure (SMILES): CN1C(=O)/C(=C2/C(=O)N(CCCN)c3ccc(Br)cc32)c2ccccc21.Cl
- pIC50 [8]: 5.89
- Activity (SARS-CoV-2 [9]): Active
- Activity (SARS-CoV-2 [10]): Active
- logP at 12 h [11]: 0.29
- Activity (SARS-CoV-2 [12]): Active
- inhibition [1]: 90.5%
- pEC50 (SARS-CoV-2 [7]): 5.56
- half-life [21]: 8.25 h
- microsomal CLint [22]: 1.4 µL/min/mg
- pIC50 [13]: 5.87
- pKd [14]: 4.78
- solubility at 24 h [15]: 2490 µg/mL
- Activity (SARS-CoV-2 [16]): Active
- remaining at 2 h [23]: 84%
- pEC50 (SARS-CoV-2 [17]): 5.58
- remaining at 24 h [18]: 95.3%
- remaining at 24 h [19]: 73.6%
- pIC50 [20]: 5.94
- pIC50 [6]: 5.87

Structure (SMILES): O=C(O)CCCCCCCN1C(=O)/C(=C2/C(=O)Nc3ccccc32)c2cc(O)ccc21
- inhibition [1]: 63.7%

Structure (SMILES): CN1CCN(CCN2C(=O)/C(=C3/C(=O)Nc4ccccc43)c3ccccc32)CC1
- inhibition [1]: 91.3%

Structure (SMILES): CN1C(=O)/C(=C2/C(=O)N(CCNC(=O)OC(C)(C)C)c3ccccc32)c2ccccc21
- inhibition [1]: 52.6%

Structure (SMILES): COc1ccc2c(c1)/C(=C1\C(=O)Nc3ccccc31)C(=O)N2C
- inhibition [1]: 91.4%

Structure (SMILES): O=C(O)CCCCCN1C(=O)/C(=C2/C(=O)Nc3ccccc32)c2ccccc21
- inhibition [1]: 59.8%

Structure (SMILES): CCOC(=O)CCCCCCCCCN1C(=O)/C(=C2/C(=O)Nc3ccccc32)c2cc(Br)ccc21
- inhibition [1]: 21.2%

Structure (SMILES): CN1C(=O)/C(=C2/C(=O)Nc3ccccc32)c2cc(O)ccc21
- inhibition [1]: 84.2%
- Activity (SARS-CoV-2 [2]): Active
- Activity (SARS-CoV-2 [3]): Active
- Activity (SARS-CoV-2 [5]): Active

Structure (SMILES): CN1C(=O)/C(=C2/C(=O)Nc3ccccc32)c2ccccc21 [MEISOINDIGO]
- inhibition [1]: 50.6%
- pIC50 [6]: 4.81

Structure (SMILES): CN1C(=O)C2(CC=CCC23C(=O)Nc2ccc(Br)cc23)c2ccccc21 (stereo not given)
- inhibition [1]: 6%

Structure (SMILES): COc1ccc2c(c1)/C(=C1\C(=O)N(C)c3ccccc31)C(=O)N2
- inhibition [1]: 70.7%

Structure (SMILES): CN1C(=O)/C(=C2/C(=O)Nc3ccccc32)c2cc(F)ccc21
- inhibition [1]: 82.5%

Structure (SMILES): CN1C(=O)/C(=C2/C(=O)Nc3ccccc32)c2cc([N+](=O)[O-])ccc21
- inhibition [1]: 32.8%
- Activity (SARS-CoV-2 [4]): Active

Structure (SMILES): CN1C(=O)/C(=C2/C(=O)Nc3ccccc32)c2cc(Cl)ccc21
- inhibition [1]: 40.8%

Structure (SMILES): O=C(O)CCCCCCCCCN1C(=O)/C(=C2/C(=O)Nc3ccccc32)c2ccccc21
- inhibition [1]: 71.2%

Structure (SMILES): CN1C(=O)/C(=C2/C(=O)Nc3ccc(Br)cc32)c2ccccc21
- inhibition [1]: 94.5%

— ChEMBL document CHEMBL5550155, “Discovery of meisoindigo derivatives as noncovalent and orally available Mpro inhibitors: their therapeutic implications in the treatment of COVID-19” (Eur J Med Chem, 2024)
